{"source": "patent US20030198690A1", "about": "“Device and method for treating restenosis” (Medical Research Fund of Tel Aviv Sourasky Medical Center, priority 2002, published 2003)", "key": {"Wistar rats": {"test_system": "Wistar rats", "assay": "Balloon dilation carotid injury in rats, morphometric and immunohistochemical analysis of arteries", "type": "in vivo", "experimental": "(§1) Carotid injury was induced in Wistar rats by balloon dilation according to a conventional model (Clowes A W, Reidy M A, Clowes M M. Kinetic of cellular proliferation after arterial injury. Lab Invest 1983; 49:327-334). Rats were then injected daily i.p. with either zinc (at a concentration of 5 mg/kg) or saline (control) for 2 weeks until sacrifice. Arteries were taken for morphometeric and immunohistochemical analysis."}, "[1]": {"assay": "Levels of serum zinc in treated rats", "type": "in vivo, Wistar rats", "settings": "zinc 5 mg/kg i.p. daily for 2 weeks; p<0.01 vs control rats", "experimental": "as §1\nLevels of serum zinc were elevated in the zinc-treated rats (248.2±19.4 pg/ml) as compared to the control rats (136.8±7.2 pg/ml; p<0.01)."}}, "data": [{"smiles": "[Zn]", "note": "[zinc]", "values": [{"measurement": "inflammatory cell infiltrate (NF-κB and iNOS positive cells)", "setting": "Wistar rats; immunohistochemical staining of arteries, zinc 5 mg/kg i.p. daily for 2 weeks", "result": "a reduction was evident"}, {"measurement": "external elastic lamina size", "setting": "Wistar rats; zinc 5 mg/kg i.p. daily for 2 weeks after carotid balloon injury", "result": "without influencing"}, {"measurement": "neointimal area", "setting": "Wistar rats; zinc 5 mg/kg i.p. daily for 2 weeks after carotid balloon injury, FIG. 1", "result": "reduced"}, {"measurement": "neointimal/medial ratio", "setting": "Wistar rats; zinc 5 mg/kg i.p. daily for 2 weeks after carotid balloon injury, FIG. 2", "result": "reduced"}, {"measurement": "Levels of serum zinc", "setting": "[1]", "result": "0.2482 ± 0.0194", "unit": "ng/mL"}]}]}
